Results reported in patent US20140357655A1, “SPIROINDOLINE DERIVATIVES AS GONADOTROPIN- RELEASING HORMONE RECEPTOR ANTAGONISTS” (Bayer Intellectual Property GmbH, priority 2012, published 2014).
pIC50: −log10 of the molar value.

Molecular target: T1, human GnRH receptor (Homo sapiens, UniProt P30968)
T1 sequence (P30968 1-328): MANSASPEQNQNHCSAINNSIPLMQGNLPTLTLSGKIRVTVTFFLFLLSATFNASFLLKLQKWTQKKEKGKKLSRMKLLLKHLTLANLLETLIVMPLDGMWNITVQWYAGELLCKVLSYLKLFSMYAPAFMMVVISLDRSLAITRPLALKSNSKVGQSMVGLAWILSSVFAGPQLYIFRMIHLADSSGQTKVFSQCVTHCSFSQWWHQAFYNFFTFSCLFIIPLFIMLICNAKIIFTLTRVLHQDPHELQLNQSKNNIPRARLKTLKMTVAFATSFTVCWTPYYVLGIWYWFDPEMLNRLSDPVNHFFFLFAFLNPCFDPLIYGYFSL
Test: IP-One HTRF assay with buserelin (at EC80) stimulation
Type: cell-based
Conditions: CHO cells stably expressing human GnRH receptor, read-out: Potency in IP-One HTRF assay, given as IC50
Outline: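 Ten-point duplicate titrations (20 μM to 1 nM) were fitted by 4-parameter model to normalized 665/620 nm HTRF ratios, 0% = no compound, 100% = no agonist. Assay measured IP1 accumulation in human GnRH-R CHO cells stimulated 1 h at 37° C with EC80 buserelin, then lysed 1 h at 22° C.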

SMILES	pIC50
O=C(NCc1ccccc1C(F)F)c1ccc2c(c1)C1(CCS(=O)(=O)CC1)C(C1CC1)N2S(=O)(=O)c1ccc(F)cc1 (single isomer, unassigned) [Example 68.2, 2-cyclopropyl-N-[2-(difluoromethyl)benzyl]-1-[(4-fluorophenyl)sulfonyl]-1,2,2′,3′,5′,6′-hexahydrospiro[indole-3,4′-thiopyran]-5-carboxamide 1′,1′-dioxide]	6.84
N#Cc1ccc(S(=O)(=O)N2c3ccc(C(=O)NCc4ncccc4Cl)cc3C3(CCS(=O)(=O)CC3)C2C2CC2)cc1 (single isomer, unassigned) [Example 70.1, N-[(3-chloropyridin-2-yl)methyl]-1-[(4-cyanophenyl)sulfonyl]-2-cyclopropyl-1,2,2′,3′,5′,6′-hexahydrospiro[indole-3,4′-thiopyran]-5-carboxamide 1′,1′-dioxide]	7.48
N#Cc1ccc(S(=O)(=O)N2c3ccc(C(=O)NCc4ncccc4Cl)cc3C3(CCS(=O)(=O)CC3)C2C2CC2)cc1 (single isomer, unassigned) [Example 70.2, N-[(3-chloropyridin-2-yl)methyl]-1-[(4-cyanophenyl)sulfonyl]-2-cyclopropyl-1,2,2′,3′,5′,6′-hexahydrospiro[indole-3,4′-thiopyran]-5-carboxamide 1′,1′-dioxide]	6.69
N#Cc1ccc(S(=O)(=O)N2c3ccc(C(=O)Nc4cncc(Cl)c4)cc3C3(CCS(=O)(=O)CC3)C2C2CC2)cc1 (single isomer, unassigned) [Example 71.1, N-(5-chloropyridin-3-yl)-1-[(4-cyanophenyl)sulfonyl]-2-cyclopropyl-1,2,2′,3′,5′,6′-hexahydrospiro[indole-3,4′-thiopyran]-5-carboxamide 1′,1′-dioxide]	7.31
N#Cc1ccc(S(=O)(=O)N2c3ccc(C(=O)Nc4cncc(Cl)c4)cc3C3(CCS(=O)(=O)CC3)C2C2CC2)cc1 (single isomer, unassigned) [Example 71.2, N-(5-chloropyridin-3-yl)-1-[(4-cyanophenyl)sulfonyl]-2-cyclopropyl-1,2,2′,3′,5′,6′-hexahydrospiro[indole-3,4′-thiopyran]-5-carboxamide 1′,1′-dioxide]	5.79
N#Cc1ccc(S(=O)(=O)N2c3ccc(C(=O)NCc4ccccc4C(F)(F)F)cc3C3(CCS(=O)(=O)CC3)C2C2CC2)cc1 (single isomer, unassigned) [Example 72.1, 1-[(4-cyanophenyl)sulfonyl]-2-cyclopropyl-N-[2-(trifluoromethyl)benzyl]-1,2,2′,3′,5′,6′-hexahydrospiro[indole-3,4′-thiopyran]-5-carboxamide 1′,1′-dioxide]	7.96
N#Cc1ccc(S(=O)(=O)N2c3ccc(C(=O)NCc4ccccc4C(F)(F)F)cc3C3(CCS(=O)(=O)CC3)C2C2CC2)cc1 (single isomer, unassigned) [Example 72.2, 1-[(4-cyanophenyl)sulfonyl]-2-cyclopropyl-N-[2-(trifluoromethyl)benzyl]-1,2,2′,3′,5′,6′-hexahydrospiro[indole-3,4′-thiopyran]-5-carboxamide 1′,1′-dioxide]	6.39
N#Cc1cccc(S(=O)(=O)N2c3ccc(C(=O)NCc4ccccc4Cl)cc3C3(CCS(=O)(=O)CC3)C2C2CC2)c1 (single isomer, unassigned) [Example 76.1, N-(2-chlorobenzyl)-1-[(3-cyanophenyl)sulfonyl]-2-cyclopropyl-1,2,2′,3′,5′,6′-hexahydrospiro[indole-3,4′-thiopyran]-5-carboxamide 1′,1′-dioxide]	7.68
N#Cc1cccc(S(=O)(=O)N2c3ccc(C(=O)NCc4ccccc4Cl)cc3C3(CCS(=O)(=O)CC3)C2C2CC2)c1 (single isomer, unassigned) [Example 76.2, N-(2-chlorobenzyl)-1-[(3-cyanophenyl)sulfonyl]-2-cyclopropyl-1,2,2′,3′,5′,6′-hexahydrospiro[indole-3,4′-thiopyran]-5-carboxamide 1′,1′-dioxide]	6.16
N#Cc1cccc(S(=O)(=O)N2c3ccc(C(=O)Nc4cncc(Cl)c4)cc3C3(CCS(=O)(=O)CC3)C2C2CC2)c1 (single isomer, unassigned) [Example 77.1, N-(5-chloropyridin-3-yl)-1-[(3-cyanophenyl)sulfonyl]-2-cyclopropyl-1,2,2′,3′,5′,6′-hexahydrospiro[indole-3,4′-thiopyran]-5-carboxamide 1′,1′-dioxide]	7.27
N#Cc1cccc(S(=O)(=O)N2c3ccc(C(=O)Nc4cncc(Cl)c4)cc3C3(CCS(=O)(=O)CC3)C2C2CC2)c1 (single isomer, unassigned) [Example 77.2, N-(5-chloropyridin-3-yl)-1-[(3-cyanophenyl)sulfonyl]-2-cyclopropyl-1,2,2′,3′,5′,6′-hexahydrospiro[indole-3,4′-thiopyran]-5-carboxamide 1′,1′-dioxide]	6.02
N#Cc1cccc(S(=O)(=O)N2c3ccc(C(=O)NCc4ncccc4C(F)(F)F)cc3C3(CCS(=O)(=O)CC3)C2C2CC2)c1 (single isomer, unassigned) [Example 79.1, 1-[(3-cyanophenyl)sulfonyl]-2-cyclopropyl-N-{[3-(trifluoromethyl)pyridin-2-yl]methyl}-1,2,2′,3′,5′,6′-hexahydrospiro[indole-3,4′-thiopyran]-5-carboxamide 1′,1′-dioxide]	7.27
N#Cc1cccc(S(=O)(=O)N2c3ccc(C(=O)NCc4ncccc4C(F)(F)F)cc3C3(CCS(=O)(=O)CC3)C2C2CC2)c1 (single isomer, unassigned) [Example 79.2, 1-[(3-cyanophenyl)sulfonyl]-2-cyclopropyl-N-{[3-(trifluoromethyl)pyridin-2-yl]methyl}-1,2,2′,3′,5′,6′-hexahydrospiro[indole-3,4′-thiopyran]-5-carboxamide 1′,1′-dioxide]	5.99
N#Cc1cccc(S(=O)(=O)N2c3ccc(C(=O)Nc4ccon4)cc3C3(CCS(=O)(=O)CC3)C2C2CC2)c1 (single isomer, unassigned) [Example 80.1, 1-[(3-cyanophenyl)sulfonyl]-2-cyclopropyl-N-(1,2-oxazol-3-yl)-1,2,2′,3′,5′,6′-hexahydrospiro[indole-3,4′-thiopyran]-5-carboxamide 1′,1′-dioxide]	6.50
N#Cc1cccc(S(=O)(=O)N2c3ccc(C(=O)Nc4ccon4)cc3C3(CCS(=O)(=O)CC3)C2C2CC2)c1 (single isomer, unassigned) [Example 80.2, 1-[(3-cyanophenyl)sulfonyl]-2-cyclopropyl-N-(1,2-oxazol-3-yl)-1,2,2′,3′,5′,6′-hexahydrospiro[indole-3,4′-thiopyran]-5-carboxamide 1′,1′-dioxide]	< 4.70
COC(=O)c1cccc(NC(=O)c2ccc3c(c2)C2(CCS(=O)(=O)CC2)C(C2CC2)N3S(=O)(=O)c2cccc(OC(F)F)c2)c1 (single isomer, unassigned) [Example 89.1, methyl 3-{[(2-cyclopropyl-1-{[3-(difluoromethoxy)phenyl]sulfonyl}-1′,1′-dioxido-1,2,2′,3′,5′,6′-hexahydrospiro[indole-3,4′-thiopyran]-5-yl)carbonyl]amino}benzoate]	7.20
COC(=O)c1cccc(NC(=O)c2ccc3c(c2)C2(CCS(=O)(=O)CC2)C(C2CC2)N3S(=O)(=O)c2cccc(OC(F)F)c2)c1 (single isomer, unassigned) [Example 89.2, methyl 3-{[(2-cyclopropyl-1-{[3-(difluoromethoxy)phenyl]sulfonyl}-1′,1′-dioxido-1,2,2′,3′,5′,6′-hexahydrospiro[indole-3,4′-thiopyran]-5-yl)carbonyl]amino}benzoate]	< 4.70
O=C(O)c1cccc(NC(=O)c2ccc3c(c2)C2(CCS(=O)(=O)CC2)C(C2CC2)N3S(=O)(=O)c2cccc(OC(F)F)c2)c1 (single isomer, unassigned) [Example 90.1, 3-{[(2-cyclopropyl-1-{[3-(difluoromethoxy)phenyl]sulfonyl}-1′,1′-dioxido-1,2,2′,3′,5′,6′-hexahydrospiro[indole-3,4′-thiopyran]-5-yl)carbonyl]amino}benzoic acid]	7.39
O=C(O)c1cccc(NC(=O)c2ccc3c(c2)C2(CCS(=O)(=O)CC2)C(C2CC2)N3S(=O)(=O)c2cccc(OC(F)F)c2)c1 (single isomer, unassigned) [Example 90.2, 3-{[(2-cyclopropyl-1-{[3-(difluoromethoxy)phenyl]sulfonyl}-1′,1′-dioxido-1,2,2′,3′,5′,6′-hexahydrospiro[indole-3,4′-thiopyran]-5-yl)carbonyl]amino}benzoic acid]	5.54
CC1N(S(=O)(=O)c2ccc(F)cc2)c2ccc(C(=O)NCc3ccccc3Cl)cc2C12CCOCC2 (stereo not shown) [Example 2, N-(2-chlorobenzyl)-1-[(4-fluorophenyl)sulfonyl]-2-methyl-1,2,2′,3′,5′,6′-hexahydrospiro[indole-3,4′-pyran]-5-carboxamide]	6.72
CC1N(S(=O)(=O)c2ccc(F)cc2)c2ccc(C(=O)NCc3ncccc3C(F)(F)F)cc2C12CCOCC2 (stereo not shown) [Example 3, 1-[(4-fluorophenyl)sulfonyl]-2-methyl-N-{[3-(trifluoromethyl)pyridin-2-yl]methyl}-1,2,2′,3′,5′,6′-hexahydrospiro[indole-3,4′-pyran]-5-carboxamide]	6.23
CC1N(S(=O)(=O)c2ccc(F)cc2)c2ccc(C(=O)NCc3ccccc3C(F)(F)F)cc2C12CCOCC2 (stereo not shown) [Example 4, 1-[(4-fluorophenyl)sulfonyl]-2-methyl-N-[2-(trifluoromethyl)benzyl]-1,2,2′,3′,5′,6′-hexahydrospiro[indole-3,4′-pyran]-5-carboxamide]	6.55
